17 compounds from patent publication US11220524B2, “Selective inhibitors of protein arginine methyltransferase 5 (PRMT5)” (PRELUDE THERAPEUTICS, INCORPORATED, priority 2017, dated 2022) can be followed below.

The term inhibition denotes the change of the read-out against control, counted positive when it falls. A higher inhibition goes with a strong effect.

In one assay the target is PRMT5/MEP50 complex (Homo sapiens (Human), UniProt O14744). As to the kind of experiment: Biochemical assay: PRMT5/MEP50 methylation of histone H2A with 3H-SAM, filter plate scintillation. The method, then: Biochemical Assay Protocol
PRMT5/MEP50 complex, sequence (O14744 whole entry): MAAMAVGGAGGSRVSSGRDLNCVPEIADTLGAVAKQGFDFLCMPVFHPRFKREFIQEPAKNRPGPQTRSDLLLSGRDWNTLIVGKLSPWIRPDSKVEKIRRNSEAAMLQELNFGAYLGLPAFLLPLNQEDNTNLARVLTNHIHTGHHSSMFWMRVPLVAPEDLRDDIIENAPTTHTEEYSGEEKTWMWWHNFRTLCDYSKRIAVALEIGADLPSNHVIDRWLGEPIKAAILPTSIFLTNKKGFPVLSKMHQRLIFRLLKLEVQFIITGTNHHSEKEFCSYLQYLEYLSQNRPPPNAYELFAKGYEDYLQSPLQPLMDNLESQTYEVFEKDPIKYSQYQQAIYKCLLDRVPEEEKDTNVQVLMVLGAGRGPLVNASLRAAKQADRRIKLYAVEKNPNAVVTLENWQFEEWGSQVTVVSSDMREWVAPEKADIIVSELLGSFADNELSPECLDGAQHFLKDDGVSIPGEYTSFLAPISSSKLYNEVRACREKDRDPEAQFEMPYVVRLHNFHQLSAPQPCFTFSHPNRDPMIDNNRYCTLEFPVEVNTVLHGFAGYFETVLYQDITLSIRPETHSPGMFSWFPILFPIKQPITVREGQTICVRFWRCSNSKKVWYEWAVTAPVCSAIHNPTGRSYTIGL
PRMT5/MEP50 complex, sequence (Q9BQA1 whole entry partner): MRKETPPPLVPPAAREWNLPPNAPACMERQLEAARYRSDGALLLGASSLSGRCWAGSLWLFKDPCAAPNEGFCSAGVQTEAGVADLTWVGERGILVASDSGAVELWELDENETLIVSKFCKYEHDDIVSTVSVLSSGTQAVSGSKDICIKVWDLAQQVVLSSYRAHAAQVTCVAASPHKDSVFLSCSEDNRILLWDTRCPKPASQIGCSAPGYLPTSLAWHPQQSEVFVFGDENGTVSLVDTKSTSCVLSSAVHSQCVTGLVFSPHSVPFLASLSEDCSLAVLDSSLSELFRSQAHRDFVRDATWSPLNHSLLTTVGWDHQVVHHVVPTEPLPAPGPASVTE
Compounds were solubilized, and 3-fold diluted in 100% DMSO. […] Standard reactions were performed in a total volume of […] assay buffer, with histone H2A (5 μM final) as substrate. To this was added the PRMT5/MEP50 complex diluted to provide a final assay concentration of 5 nM and the compounds were allowed to preincubate for 15 to 20 minutes at room temperature. The reaction was initiated by adding S-[3H-methyl]-adenosyl-L-methionine (PerkinElmer) to final concentration of 1 μM. Following a 60 minutes incubation at 30° C., the reaction was stopped by adding 100 μL of 20% TCA. Each reaction was spotted onto filter plate (MultiScreen FB Filter Plate, Millipore), and washed 5 times with PBS buffer, Scintillation fluid was added to the filter plate and read in a scintillation counter. IC50 values were determined by fitting the data to the standard 4 parameters with Hill Slope using GraphPad Prism software.

Assay [1] has as its system Symmetric Di-Methyl Arginine (sDMA) in Granta-519 cells. As to the kind of experiment: Western blot for symmetric di-methyl arginine (sDMA) marks in Granta cells, 3 days treatment. The class given is cell-based. To be noted: Homo sapiens; for IC50: 3 days; for inhibition at 1 µM: Granta-519. The method, then:
Cell Treatment and Western Blotting for Detecting Symmetric Di-Methyl Arginine (sDMA) and Histone H3R8 Dimethyl Symmetric (H3R8me2s) Marks
Initial compounds screening in A549 cells: Compounds were dissolved in DMSO to make 10 mM stock and further diluted to 0.1, and 1 mM. A549 cells were maintained in PRMI 1640 (Corning Cellgro, Catalog #: 10-040-CV) medium supplemented with 10% v/v FBS (GE Healthcare, Catalog #: SH30910.03). One day before experiment, 1.25×10^5 cells were seeded in 6 well plate in 3 mL medium and incubated overnight. The next day, medium was changed and 3 uL of compound solution was added (1:1,000 dilution, 0.1 and 1 uM final concentration; DMSO concentration: 0.1%), and incubated for 3 days. Cells incubated with DMSO was used as a vehicle control. Cells were washed once with PBS, trypsinized in 150 uL 0.25% Trypsin (Corning, Catalog #: 25-053-CI), neutralized with 1 mL complete medium, transferred to microcentrifuge tubes and collected. Cell pellet was then resuspended in 15 uL PBS, lysed in 4% SDS, and homogenized by passing through homogenizer column (Omega Biotek, Catalog #: HCR003). Total protein concentrations were determined by BCA assay (ThermoFisher Scientific, Catalog #: 23225). Lysates were mixed with 5× Laemmli buffer and boiled for 5 min. Forty ug of total protein was separated on SDS-PAGE gels (Bio-Rad, catalog #: 4568083, 4568043), transferred to PVDF membrane, blocked with 5% dry milk (Bio-Rad, Catalog #: 1706404) in TBS with 0.1% v/v Tween 20 (TBST) for 1 hour at room temperature (RT), and incubated with primary antibodies (sDMA: Cell signaling, Catalog #: 13222, 1:3,000; H3R8me2s: Epigentek, Catalog #: A-3706-100, 1:2,000; β-Actin: Abcam, Catalog #: ab8227, 1:10,000) in 5% dry milk in TBST at 4° C. for overnight. The next day, membranes were washed with TBST, 5×5 min, and incubated withhP conjugated seconded antibody (GE Healthcare; Catalog #: NA934-1ML; 1:5,000) for 2 hours at RT, followed by 5×5 min washes with TBST, and incubation with ECL substrates (Bio-Rad, Catalog #: 1705061, 1705062). Chemiluminescent signal was captured with FluoChem HD2 imager (Proteinsimple) and analyzed by ImageJ.
Cells incubated with DMSO was used as a vehicle control. Cells were harvested and subjected to western blot analysis as described above. SmD3me2s and H3R8me2s bands were quantified by ImageJ. Signals were normalized to β-Actin and DMSO control. IC50 values were calculated using Graphpad Prism.
On the technique in general: Immunoblotting shows a protein as a band on a membrane.

[2] abbreviates: biochemical potency, read-out: PRTMT5/MEP50 IC50.
The mark [3] stands for this setting: Granta-519, 72 h, Granta cell line.
The mark [4] stands for this setting: histone H2A 5 μM, SAM 1 μM, enzyme 5 nM, read-out: PRMT5/MEP50 IC50.

Counter-ions that a name gives are not always drawn. Like-named read-outs stand apart in the source and are kept apart here.

Turning to `O/N=c1/nc[nH]c2c1ccn2[C@@H]1C[C@H]([C@H](O)c2ccc(Cl)cc2)[C@@H](O)[C@H]1O` [Example 50-B, 7-[(1R,2S,3R,4R)-4-[(S)-(4-chlorophenyl)-hydroxy-methyl]-2,3-dihydroxy-cyclopentyl]-1H-pyrrolo[2,3-d]pyrimidin-4-one oxime hydrochloride], the IC50 at PRMT5/MEP50 complex (setting [2]) was 11.7 nM; in assay [1] (setting [3]) it was roughly 600 nM.

In the case of `CN(N)c1ncnc2c1ccn2[C@@H]1C[C@H](CCc2ccc3ccc(NCC4CC4)nc3c2)[C@@H](O)[C@H]1O` [Example 79-B, (1S,2R,3S,5R)-3-(2-(2-((cyclopropylmethyl)amino)quinolin-7-yl)ethyl)-5-(4-(1-methylhydrazineyl)-7H-pyrrolo[2,3-d]pyrimidin-7-yl)cyclopentane-1,2-diol], the values for the IC50 (at PRMT5/MEP50 complex (setting [2]); in assay [1] (setting [3])) were 8.2 nM and 97 nM, respectively.

For the compound `CNc1ccc2ccc(CC[C@H]3C[C@@H](n4ccc5/c(=N/OC)nc[nH]c54)[C@H](O)[C@@H]3O)cc2n1` [Example 84-B, 7-((1R,2S,3R,4S)-2,3-dihydroxy-4-(2-(2-(methylamino)quinolin-7-yl)ethyl)cyclopentyl)-1,7-dihydro-4H-pyrrolo[2,3-d]pyrimidin-4-one O-methyl oxime], the figures for the IC50 (on PRMT5/MEP50 complex (setting [2]); in assay [1] (setting [3])) were 2.7 nM and 16 nM, respectively.

Regarding `CO/N=c1\nc[nH]c2c1ccn2[C@@H]1C[C@H](CCc2ccc3ccc(N)nc3c2)[C@@H](O)[C@H]1O` [Example 85-B, 7-((1R,2S,3R,4S)-4-(2-(2-aminoquinolin-7-yl)ethyl)-2,3-dihydroxycyclopentyl)-1,7-dihydro-4H-pyrrolo[2,3-d]pyrimidin-4-one O-methyl oxime], the results for the IC50 (at PRMT5/MEP50 complex (setting [2]); in assay [1] (setting [3])) were 0.64 nM and 0.9 nM, respectively.

`CO/N=c1\nc[nH]c2c1ccn2[C@@H]1C[C@H](CCc2ccc3cc(Cl)c(N)nc3c2)[C@@H](O)[C@H]1O` [Example 86-B, (Z)-7-((1R,2S,3R,4S)-4-(2-(2-amino-3-chloroquinolin-7-yl)ethyl)-2,3-dihydroxycyclopentyl)-3,7-dihydro-4H-pyrrolo[2,3-d]pyrimidin-4-one O-methyl oxime]: the IC50 at PRMT5/MEP50 complex (setting [2]) amounted to 0.2 nM; in assay [1] (setting [3]), 3 nM.

`O/N=c1\nc[nH]c2c1ccn2[C@@H]1C[C@H](CCc2ccc3ccc(NCC4CC4)nc3c2)[C@@H](O)[C@H]1O` [Example 87-B, 7-((1R,2S,3R,4S)-4-(2-(2-((cyclopropylmethyl)amino)quinolin-7-yl)ethyl)-2,3-dihydroxycyclopentyl)-1,7-dihydro-4H-pyrrolo[2,3-d]pyrimidin-4-one oxime]: the IC50 on PRMT5/MEP50 complex (setting [2]) is 0.33 nM; in assay [1] (setting [3]), 1.7 nM.

For `CN/N=c1\nc[nH]c2c1ccn2[C@@H]1C[C@H](CCc2ccc3ccc(NCC4CC4)nc3c2)[C@@H](O)[C@H]1O` [Example 91-B, (1S,2R,3S,5R)-3-(2-(2-((cyclopropylmethyl)amino)quinolin-7-yl)ethyl)-5-((Z)-4-(2-methylhydrazineylidene)-1,4-dihydro-7H-pyrrolo[2,3-d]pyrimidin-7-yl)cyclopentane-1,2-diol], the values for the IC50 (on PRMT5/MEP50 complex (setting [2]); in assay [1] (setting [3])) were 3.2 nM and 46.8 nM, respectively.

For the compound `CO/N=c1\nc[nH]c2c1ccn2[C@@H]1C[C@H]([C@H](O)c2ccc(Cl)c(Cl)c2)[C@@H](O)[C@H]1O` [Example 92-B, 7-((1R,2S,3R,4R)-4-((S)-(3,4-dichlorophenyl)(hydroxy)methyl)-2,3-dihydroxycyclopentyl)-1,7-dihydro-4H-pyrrolo[2,3-d]pyrimidin-4-one O-methyl oxime], the IC50 on PRMT5/MEP50 complex (setting [2]) was 19.9 nM; in assay [1] (setting [3]), 335 nM.

For the compound `C[C@@](O)(c1ccc(Cl)c(Cl)c1)[C@H]1C[C@@H](n2ccc3/c(=N\O)nc[nH]c32)[C@H](O)[C@@H]1O` [Example 94-B, 7-((1R,2S,3R,4S)-4-((S)-1-(3,4-dichlorophenyl)-1-hydroxyethyl)-2,3-dihydroxycyclopentyl)-1,7-dihydro-4H-pyrrolo[2,3-d]pyrimidin-4-one oxime], the IC50 at PRMT5/MEP50 complex (setting [2]) came out at 3.4 nM; in assay [1] (setting [3]), 53 nM.

Regarding `CO/N=c1\nc[nH]c2c1ccn2[C@@H]1O[C@H]([C@H](O)c2ccc(C(F)(F)F)c(C)c2)[C@@H](O)[C@H]1O` [Example 98, 7-((2R,3R,4S,5R)-3,4-dihydroxy-5-((R)-hydroxy(3-methyl-4-(trifluoromethyl)phenyl)methyl)tetrahydrofuran-2-yl)-1,7-dihydro-4H-pyrrolo[2,3-d]pyrimidin-4-one O-methyl oxime], the IC50 at PRMT5/MEP50 complex (setting [4]) was determined as 8.4 nM; in assay [1] (72 h, Granta-519 cell line), 9 nM.

Regarding `CO/N=c1\nc[nH]c2c1ccn2[C@@H]1O[C@H]([C@H](OC)c2ccc(Cl)c(F)c2)[C@@H](O)[C@H]1O` [Example 102, 7-((2R,3R,4S,5S)-5-((R)-(4-chloro-3-fluorophenyl)(methoxy)methyl)-3,4-dihydroxytetrahydrofuran-2-yl)-1,7-dihydro-4H-pyrrolo[2,3-d]pyrimidin-4-one O-methyl oxime], the IC50 is 436 nM on PRMT5/MEP50 complex (setting [4]) and 3360 nM in assay [1] (72 h, Granta-519 cell line).

For the compound `CN/N=c1/nc[nH]c2c1ncn2[C@@H]1O[C@H]([C@H](O)c2ccc(Cl)cc2)[C@@H](O)[C@H]1O` [compound 52, (2R,3S,4R,5R)-2-[(R)-(4-chlorophenyl)-hydroxy-methyl]-5-[6-(methylhydrazono)-3H-purin-9-yl]tetrahydrofuran-3,4-diol; 2,2,2-trifluoroacetic Acid], the IC50 at PRMT5/MEP50 complex (setting [4]) stood at 188 nM. For the same compound, the inhibition at 1 µM in assay [1] was 39%.

For the compound `O/N=c1/nc[nH]c2c1ncn2[C@@H]1O[C@H]([C@H](O)c2ccc(Cl)cc2)[C@@H](O)[C@H]1O` [compound 54, 9-[(2R,3R,4S,5R)-5-[(R)-(4-chlorophenyl)-hydroxy-methyl]-3,4-dihydroxy-tetrahydrofuran-2-yl]-3H-purin-6-one oxime trifluoroacetic Acid Salt], the IC50 on PRMT5/MEP50 complex (setting [4]) was 25.6 nM. In assay [1], this compound had an inhibition at 1 µM of 55%.

Turning to `C[C@@](O)(c1ccc(Cl)cc1)[C@H]1O[C@@H](n2ccc3/c(=N/O)nc[nH]c32)[C@H](O)[C@@H]1O` [compound 59, 7-((2R,3R,4S)-5-((R)-1-(4-chlorophenyl)-1-hydroxyethyl)-3,4-dihydroxytetrahydrofuran-2-yl)-1,7-dihydro-4H-pyrrolo[2,3-d]pyrimidin-4-one oxime hydrochloride], the IC50 was 2.8 nM at PRMT5/MEP50 complex (setting [4]) and 45 nM in assay [1] (72 h, Granta-519 cell line).

Turning to `CO/N=c1\nc[nH]c2c1ccn2[C@@H]1O[C@H]([C@](C)(O)c2ccc(Cl)cc2)[C@@H](O)[C@H]1O` [compound 60, 7-((2R,3R,4S)-5-((R)-1-(4-chlorophenyl)-1-hydroxyethyl)-3,4-dihydroxytetrahydrofuran-2-yl)-1,7-dihydro-4H-pyrrolo[2,3-d]pyrimidin-4-one O-methyl oxime], the IC50 at PRMT5/MEP50 complex (setting [4]) stood at 37.7 nM; in assay [1] (72 h, Granta-519 cell line), 438 nM.

Turning to `O/N=c1/nc[nH]c2c1ccn2[C@@H]1O[C@H]([C@H](O)c2ccc(Cl)c(F)c2)[C@@H](O)[C@H]1O` [compound 63, 7-((2R,3R,4S,5R)-5-((R)-(4-chloro-3-fluorophenyl)(hydroxy)methyl)-3,4-dihydroxytetrahydrofuran-2-yl)-1,7-dihydro-4H-pyrrolo[2,3-d]pyrimidin-4-one oxime], the IC50 at PRMT5/MEP50 complex (setting [4]) came out at 0.7 nM; in assay [1] (72 h, Granta-519 cell line), 10.8 nM.

Consider `CN/N=c1\nc[nH]c2c1ccn2[C@@H]1O[C@H]([C@H](O)c2ccc(Cl)cc2)[C@@H](O)[C@H]1O` [compound 64, (2R,3S,4R,5R)-2-[(R)-(4-chlorophenyl)-hydroxy-methyl]-5-[4-(methylhydrazono)-1H-pyrrolo[2,3-d]pyrimidin-7-yl]tetrahydrofuran-3,4-diol hydrochloride], for which the IC50 is 8.3 nM at PRMT5/MEP50 complex (setting [4]) and 93 nM in assay [1] (72 h, Granta-519 cell line).
